Where a name gives a salt, the structure may show the parent alone.
Experiments:
[1] = system: depressant effects which are induced in mice by tetrabenazine; test: blocking the depressant effects induced in mice by intravenous tetrabenazine (modification of Englehardt et al.); assay type: in vivo; conditions: Mus musculus, IP
Experimental: The activity of the compounds was determined by their administration intraperitoneally to mice and their effectiveness in blocking the depressant effects which are induced in mice by the intravenous administration of 2-oxo-3-insobutyl-9,10-dimethoxy-1,2,3,4,6,7-hexahydro-11bh-benzo[a]quinolizine (tetrabenazine). The procedure used was a modification of Englehardt, E. L. et al, J. Med. Chem. 11 (2), 325(1968). The ED50 values of the compounds are given in Table I; the compounds of Examples 3, 5, 7 and 8 are the preferred compounds.

[2] = system: mice; test: analgesic activity in mice, modification of Nilsen's method; assay type: in vivo; conditions: Mus musculus, ip; administered intraperitoneally to mice; read-out: ED50 analgetic dose
Experimental: The analgesic activity of the 1-cyclopropyl-1-alkanoyloxy-1-phenyl-ω-amino alkane compounds of this invention were determined by a modification of Nilsen's method [Funderburk, W. H., et al, Arch. Int.

## CCC(=O)OC(CCN(C)C)(c1ccccc1)C1CC1 (centres unmarked) [Example 10, 1-Cyclopropyl-3-dimethylamino-1phenyl-1-propionyloxypropane Hydrochloride]
[1]
  ED50: 7.7 mg/kg
[2]
  ED50: 14.2 mg/kg

From patent publication US4001429A, “1-Cyclopropyl-1-phenyl-ω-amino-1-alkanols and 1-lower-alkylacyl derivatives as analgetics” (A. H. Robins Company, Incorporated, priority 1975, dated 1977)
